{"source": "ChEMBL document CHEMBL1201862", "about": "“PubChem BioAssay data set” (2004)", "test_in_all_cases": "inhibition of tumour cell growth, NCI panel, 48 h", "key": {"786-0": {"test_system": "786-0"}, "A549": {"test_system": "A549"}, "ACHN": {"test_system": "ACHN"}, "BT-549": {"test_system": "BT-549"}, "CCRF-CEM": {"test_system": "CCRF-CEM"}, "COLO 205": {"test_system": "COLO 205"}, "DU-145": {"test_system": "DU-145"}, "EKVX": {"test_system": "EKVX"}, "HCC 2998": {"test_system": "HCC 2998"}, "HCT-15": {"test_system": "HCT-15"}, "HL-60": {"test_system": "HL-60"}, "HOP-62": {"test_system": "HOP-62"}, "HOP-92": {"test_system": "HOP-92"}, "HT-29": {"test_system": "HT-29"}, "Hs-578T": {"test_system": "Hs-578T"}, "IGROV-1": {"test_system": "IGROV-1"}, "K562": {"test_system": "K562"}, "KM12": {"test_system": "KM12"}, "M14": {"test_system": "M14"}, "MCF7": {"test_system": "MCF7"}, "MDA-MB-435": {"test_system": "MDA-MB-435"}, "MDA-N": {"test_system": "MDA-N"}, "MOLT-4": {"test_system": "MOLT-4"}, "Malme-3M": {"test_system": "Malme-3M"}, "NCI-H226": {"test_system": "NCI-H226"}, "NCI-H23": {"test_system": "NCI-H23"}, "NCI-H460": {"test_system": "NCI-H460"}, "NCI-H522": {"test_system": "NCI-H522"}, "NCI/ADR-RES": {"test_system": "NCI/ADR-RES"}, "OVCAR-4": {"test_system": "OVCAR-4"}, "OVCAR-5": {"test_system": "OVCAR-5"}, "OVCAR-8": {"test_system": "OVCAR-8"}, "PC-3": {"test_system": "PC-3"}, "RPMI-8226": {"test_system": "RPMI-8226"}, "SF-268": {"test_system": "SF-268"}, "SF-295": {"test_system": "SF-295"}, "SF-539": {"test_system": "SF-539"}, "SK-MEL-28": {"test_system": "SK-MEL-28"}, "SK-MEL-5": {"test_system": "SK-MEL-5"}, "SN12C": {"test_system": "SN12C"}, "SNB-19": {"test_system": "SNB-19"}, "SR": {"test_system": "SR"}, "SW-620": {"test_system": "SW-620"}, "T47D": {"test_system": "T47D"}, "TK-10": {"test_system": "TK-10"}, "U-251": {"test_system": "U-251"}, "UACC-62": {"test_system": "UACC-62"}, "UO-31": {"test_system": "UO-31"}}, "note": "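Tested at 5 concentrations; 48 h exposure; 96-well plates; endpoints linearly interpolated, else capped at highest concentration. Here, GI50 denotes the concentration required for 50% inhibition of growth.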 The source made the active and inactive calls. No stated cut-off is given here; in the data, active = GI50 up to about 1.1 µM and inactive = higher.", "data": [{"compound": "O=[N+]([O-])c1cc([N+](=O)[O-])c(Nn2c3ccccc3c3ccccc32)c([N+](=O)[O-])c1", "values": [{"measurement": "GI50", "setting": "786-0", "result": "2.74 µM (inactive)"}, {"measurement": "GI50", "setting": "A549", "result": "2.82 µM (inactive)"}, {"measurement": "GI50", "setting": "ACHN", "result": "1.2 µM (inactive)"}, {"measurement": "GI50", "setting": "BT-549", "result": "2.18 µM (inactive)"}, {"measurement": "GI50", "setting": "CCRF-CEM", "result": "2.16 µM (inactive)"}, {"measurement": "GI50", "setting": "COLO 205", "result": "2.56 µM (inactive)"}, {"measurement": "GI50", "setting": "DU-145", "result": "4.15 µM (inactive)"}, {"measurement": "GI50", "setting": "EKVX", "result": "1.64 µM (inactive)"}, {"measurement": "GI50", "setting": "HCC 2998", "result": "2.74 µM (inactive)"}, {"measurement": "GI50", "setting": "HCT-15", "result": 2.58, "unit": "µM"}, {"measurement": "GI50", "setting": "HL-60", "result": "3.51 µM (inactive)"}, {"measurement": "GI50", "setting": "HOP-62", "result": "1.87 µM (inactive)"}, {"measurement": "GI50", "setting": "HOP-92", "result": "0.346 µM (active)"}, {"measurement": "GI50", "setting": "HT-29", "result": "0.857 µM (active)"}, {"measurement": "GI50", "setting": "Hs-578T", "result": "2.46 µM (inactive)"}, {"measurement": "GI50", "setting": "IGROV-1", "result": "2.18 µM (inactive)"}, {"measurement": "GI50", "setting": "K562", "result": "1.14 µM (inactive)"}, {"measurement": "GI50", "setting": "KM12", "result": "0.622 µM (active)"}, {"measurement": "GI50", "setting": "M14", "result": "2.17 µM (inactive)"}, {"measurement": "GI50", "setting": "MCF7", "result": "1.25 µM (inactive)"}, {"measurement": "GI50", "setting": "MDA-MB-435", "result": "1.56 µM (inactive)"}, {"measurement": "GI50", "setting": "MDA-N", "result": "2.38 µM (inactive)"}, {"measurement": "GI50", "setting": "MOLT-4", "result": "0.69 µM (active)"}, {"measurement": "GI50", "setting": "Malme-3M", "result": "1.42 µM (inactive)"}, {"measurement": "GI50", "setting": "NCI-H226", "result": "1.4 µM (inactive)"}, {"measurement": "GI50", "setting": "NCI-H23", "result": "1.43 µM (inactive)"}, {"measurement": "GI50", "setting": "NCI-H460", "result": "1.86 µM (inactive)"}, {"measurement": "GI50", "setting": "NCI-H522", "result": "0.403 µM (active)"}, {"measurement": "GI50", "setting": "NCI/ADR-RES", "result": "3.24 µM (inactive)"}, {"measurement": "GI50", "setting": "OVCAR-4", "result": "2.12 µM (inactive)"}, {"measurement": "GI50", "setting": "OVCAR-5", "result": "4.63 µM (inactive)"}, {"measurement": "GI50", "setting": "OVCAR-8", "result": "2.55 µM (inactive)"}, {"measurement": "GI50", "setting": "PC-3", "result": "1.25 µM (inactive)"}, {"measurement": "GI50", "setting": "RPMI-8226", "result": "0.65 µM (active)"}, {"measurement": "GI50", "setting": "SF-268", "result": "2.94 µM (inactive)"}, {"measurement": "GI50", "setting": "SF-295", "result": "1.25 µM (inactive)"}, {"measurement": "GI50", "setting": "SF-539", "result": "2.12 µM (inactive)"}, {"measurement": "GI50", "setting": "SK-MEL-28", "result": "3.3 µM (inactive)"}, {"measurement": "GI50", "setting": "SK-MEL-5", "result": "1.94 µM (inactive)"}, {"measurement": "GI50", "setting": "SN12C", "result": "1.79 µM (inactive)"}, {"measurement": "GI50", "setting": "SNB-19", "result": "3.04 µM (inactive)"}, {"measurement": "GI50", "setting": "SR", "result": "0.94 µM (active)"}, {"measurement": "GI50", "setting": "SW-620", "result": "3.02 µM (inactive)"}, {"measurement": "GI50", "setting": "T47D", "result": "0.641 µM (active)"}, {"measurement": "GI50", "setting": "TK-10", "result": "2.2 µM (inactive)"}, {"measurement": "GI50", "setting": "U-251", "result": "1.82 µM (inactive)"}, {"measurement": "GI50", "setting": "UACC-62", "result": "0.933 µM (active)"}, {"measurement": "GI50", "setting": "UO-31", "result": "2.07 µM (inactive)"}]}]}
